# Data published in ChEMBL document CHEMBL1132138, “Leishmanicidal activity of combretastatin analogues and heteroanalogues” (Bioorg Med Chem Lett, 1999).
# The source made the active and inactive calls. The calls are words filed in the database; no cut-off is given here.
# What was measured:
# Assay type in all cases: functional, organism-based
# Leishmania donovani [1] = test: In vitro evaluation of leishmanicidal activity against Leishmania donovani (PP75) at a dose 10 ug/mL; ++ = 80- 90% lysis
# Leishmania amazonensis [2] = test: In vitro evaluation of leishmanicidal activity against Leishmania amazonensis (PH8) at a dose 10 ug/mL; ++ = 80- 90% lysis
# Leishmania braziliensis [3] = test: In vitro evaluation of leishmanicidal activity against Leishmania brasiliensis (2903) at a dose 10 ug/mL; ++ = 80- 90% lysis
# Leishmania donovani [4] = test: In vitro evaluation of leishmanicidal activity against Leishmania donovani (PP75) at a dose 100 ug/mL; ++ = 80- 90% lysis
# Leishmania amazonensis [5] = test: In vitro evaluation of leishmanicidal activity against Leishmania amazonensis (PH8) at a dose 100 ug/mL; ++ = 80- 90% lysis
# Leishmania braziliensis [6] = test: In vitro evaluation of leishmanicidal activity against Leishmania brasiliensis (2903) at a dose 100 ug/mL; ++ = 80- 90% lysis
# Leishmania amazonensis [7] = test: In vitro evaluation of leishmanicidal activity against Leishmania amazonensis (PH8) at a dose 100 ug/mL; ++ = 80-90% of lysis
# Leishmania braziliensis [8] = test: Compound was tested in vitro for leishmanicidal activity against Leishmania brasiliensis (2903) at a dose 100 ug/mL; ++ = 80-90% of lysis
# Leishmania donovani [9] = test: Compound was tested in vitro for leishmanicidal activity against Leishmania donovani (PP75) at a dose 100 ug/mL; ++ = 80-90% of lysis
# Leishmania braziliensis [10] = test: In vitro evaluation of leishmanicidal activity against Leishmania brasiliensis (2903) at a dose 100 ug/mL; + = <70% lysis
# Leishmania donovani [11] = test: In vitro evaluation of leishmanicidal activity against Leishmania donovani (PP75) at a dose 100 ug/mL; + = <70% lysis
# Leishmania amazonensis [12] = test: In vitro evaluation of leishmanicidal activity against Leishmania amazonensis (PH8) at a dose 100 ug/mL; + = <70% lysis
# Leishmania braziliensis [13] = test: In vitro evaluation of leishmanicidal activity against Leishmania brasiliensis (2903) at a dose 50 ug/mL; ++ = 80- 90% lysis
# Leishmania donovani [14] = test: In vitro evaluation of leishmanicidal activity against Leishmania donovani (PP75) at a dose 50 ug/mL; ++ = 80- 90% lysis
# Leishmania amazonensis [15] = test: In vitro evaluation of leishmanicidal activity against Leishmania amazonensis (PH8) at a dose 50 ug/mL; ++ = 80- 90% lysis
# Leishmania donovani [16] = test: In vitro evaluation of leishmanicidal activity against Leishmania donovani (PP75) at a dose 25 ug/mL; ++ = 80- 90% lysis
# Leishmania braziliensis [17] = test: In vitro evaluation of leishmanicidal activity against Leishmania brasiliensis (2903) at a dose 25 ug/mL; ++ = 80- 90% lysis
# Leishmania amazonensis [18] = test: In vitro evaluation of leishmanicidal activity against Leishmania amazonensis (PH8) at a dose 25 ug/mL; ++ = 80- 90% lysis
# Leishmania amazonensis [19] = test: In vitro evaluation of leishmanicidal activity against Leishmania amazonensis (PH8) at a dose 50 ug/mL;++ = 80- 90% lysis
# Leishmania braziliensis [20] = test: In vitro evaluation of leishmanicidal activity against Leishmania brasiliensis (2903) at a dose 25 ug/mLv
# Leishmania donovani [21] = test: In vitro evaluation of leishmanicidal activity against Leishmania donovani (PP75) at a dose 100 ug/mL; +++=total lysis of parasites
# Leishmania amazonensis [22] = test: In vitro evaluation of leishmanicidal activity against Leishmania amazonensis (PH8) at a dose 50 ug/mL; Total lysis of parasites
# Leishmania donovani [23] = test: In vitro evaluation of leishmanicidal activity against Leishmania donovani (PP75) at a dose 50 ug/mL; +++=total lysis of parasites
# Leishmania braziliensis [24] = test: In vitro evaluation of leishmanicidal activity against Leishmania brasiliensis (2903) at a dose 10 ug/mL; +++=total lysis of parasites
# Leishmania braziliensis [25] = test: In vitro evaluation of leishmanicidal activity against Leishmania brasiliensis (2903) at a dose 100 ug/mL; +++=total lysis of parasites
# Leishmania braziliensis [26] = test: In vitro evaluation of leishmanicidal activity against Leishmania brasiliensis (2903) at a dose 50 ug/mL; +++=total lysis of parasites
# Leishmania donovani [27] = test: In vitro evaluation of leishmanicidal activity against Leishmania donovani (PP75) at a dose 25 ug/mL; +++=total lysis of parasites
# Leishmania amazonensis [28] = test: In vitro evaluation of leishmanicidal activity against Leishmania amazonensis (PH8) at a dose 25 ug/mL; Total lysis of parasites
# Leishmania amazonensis [29] = test: In vitro evaluation of leishmanicidal activity against Leishmania amazonensis (PH8) at a dose 10 ug/mL; +++=total lysis of parasites
# Leishmania amazonensis [30] = test: In vitro evaluation of leishmanicidal activity against Leishmania amazonensis (PH8) at a dose 100 ug/mL; +++=total lysis of parasites
# Leishmania donovani [31] = test: In vitro evaluation of leishmanicidal activity against Leishmania donovani (PP75) at a dose 10 ug/mL; +++=total lysis of parasites
compound,measurement,setting,value
COc1cc(CC(=O)c2ccco2)cc(OC)c1OC,Leishmanicidal activity,Leishmania donovani [1],80- 90% lysis
same,Leishmanicidal activity,Leishmania amazonensis [2],80- 90% lysis
same,Leishmanicidal activity,Leishmania braziliensis [3],80- 90% lysis
COc1ccc(CC(=O)c2ccco2)cc1O,Leishmanicidal activity,Leishmania donovani [4],80- 90% lysis
same,Leishmanicidal activity,Leishmania amazonensis [5],80- 90% lysis
same,Leishmanicidal activity,Leishmania braziliensis [6],80- 90% lysis
COc1cc(CC(O)c2ccco2)cc(OC)c1OC (stereo not given),Leishmanicidal activity,Leishmania donovani [4],80- 90% lysis
same,Leishmanicidal activity,Leishmania amazonensis [5],80- 90% lysis
same,Leishmanicidal activity,Leishmania braziliensis [6],80- 90% lysis
COc1cc(CC(=O)c2ccoc2)cc(OC)c1OC,Leishmanicidal activity,Leishmania donovani [4],80- 90% lysis
same,Leishmanicidal activity,Leishmania amazonensis [5],80- 90% lysis
same,Leishmanicidal activity,Leishmania braziliensis [6],80- 90% lysis
COc1ccc(CCc2ccco2)cc1O,Leishmanicidal activity,Leishmania donovani [4],80- 90% lysis
same,Leishmanicidal activity,Leishmania amazonensis [5],80- 90% lysis
same,Leishmanicidal activity,Leishmania braziliensis [6],80- 90% lysis
COc1cc(CC2(c3cn(C)c4ccccc34)SCCCS2)cc(OC)c1OC,Leishmanicidal activity,Leishmania amazonensis [7],80-90% of lysis
same,Leishmanicidal activity,Leishmania braziliensis [8],80-90% of lysis
same,Leishmanicidal activity,Leishmania donovani [9],80-90% of lysis
COc1cc(C(O)C(=O)c2cccs2)cc(OC)c1OC (stereo not given),Leishmanicidal activity,Leishmania braziliensis [10],<70% lysis
same,Leishmanicidal activity,Leishmania donovani [11],<70% lysis
same,Leishmanicidal activity,Leishmania amazonensis [12],<70% lysis
COc1ccc(CCc2ccc3c(c2)OCO3)cc1O,Leishmanicidal activity,Leishmania braziliensis [13],80- 90% lysis
same,Leishmanicidal activity,Leishmania donovani [14],80- 90% lysis
same,Leishmanicidal activity,Leishmania amazonensis [5],80- 90% lysis
same,Leishmanicidal activity,Leishmania amazonensis [15],80- 90% lysis
same,Leishmanicidal activity,Leishmania braziliensis [6],80- 90% lysis
COc1cc(CCc2cn(C)c3ccccc23)cc(OC)c1OC,Leishmanicidal activity,Leishmania donovani [1],80- 90% lysis
same,Leishmanicidal activity,Leishmania amazonensis [2],80- 90% lysis
same,Leishmanicidal activity,Leishmania donovani [16],80- 90% lysis
same,Leishmanicidal activity,Leishmania braziliensis [17],80- 90% lysis
same,Leishmanicidal activity,Leishmania braziliensis [3],80- 90% lysis
same,Leishmanicidal activity,Leishmania amazonensis [18],80- 90% lysis
COc1cc(CC(=O)c2ccc(C)o2)cc(OC)c1OC,Leishmanicidal activity,Leishmania donovani [1],80- 90% lysis
same,Leishmanicidal activity,Leishmania donovani [4],80- 90% lysis
same,Leishmanicidal activity,Leishmania amazonensis [2],80- 90% lysis
same,Leishmanicidal activity,Leishmania braziliensis [3],80- 90% lysis
COc1ccc2[nH]c(-c3ccc4ccccc4c3)c(-c3cc(OC)c(OC)c(OC)c3)c2c1,Leishmanicidal activity,Leishmania donovani [4],80- 90% lysis
same,Leishmanicidal activity,Leishmania amazonensis [5],80- 90% lysis
same,Leishmanicidal activity,Leishmania braziliensis [6],80- 90% lysis
COc1cc(CCc2ccoc2)cc(OC)c1OC,Leishmanicidal activity,Leishmania braziliensis [10],<70% lysis
same,Leishmanicidal activity,Leishmania donovani [11],<70% lysis
COc1cc(CCc2ccco2)cc(OC)c1OC,Leishmanicidal activity,Leishmania donovani [1],80- 90% lysis
same,Leishmanicidal activity,Leishmania donovani [4],80- 90% lysis
same,Leishmanicidal activity,Leishmania amazonensis [2],80- 90% lysis
same,Leishmanicidal activity,Leishmania donovani [16],80- 90% lysis
same,Leishmanicidal activity,Leishmania braziliensis [17],80- 90% lysis
same,Leishmanicidal activity,Leishmania braziliensis [3],80- 90% lysis
same,Leishmanicidal activity,Leishmania amazonensis [18],80- 90% lysis
COc1ccc2[nH]c(-c3ccc4c(c3)OCO4)c(-c3cc(OC)c(OC)c(OC)c3)c2c1,Leishmanicidal activity,Leishmania braziliensis [13],80- 90% lysis
same,Leishmanicidal activity,Leishmania donovani [14],80- 90% lysis
same,Leishmanicidal activity,Leishmania amazonensis [19],80- 90% lysis
COc1ccc2[nH]c(-c3ccco3)c(-c3cc(OC)c(OC)c(OC)c3)c2c1,Leishmanicidal activity,Leishmania donovani [1],80- 90% lysis
same,Leishmanicidal activity,Leishmania amazonensis [2],80- 90% lysis
same,Leishmanicidal activity,Leishmania braziliensis [3],80- 90% lysis
N=C(N)c1ccc(OCCCCCOc2ccc(C(=N)N)cc2)cc1,Leishmanicidal activity,Leishmania braziliensis [20],Active
same,Leishmanicidal activity,Leishmania donovani [21],Active
same,Leishmanicidal activity,Leishmania amazonensis [22],Active
same,Leishmanicidal activity,Leishmania donovani [23],Active
same,Leishmanicidal activity,Leishmania braziliensis [24],Active
same,Leishmanicidal activity,Leishmania braziliensis [25],Active
same,Leishmanicidal activity,Leishmania braziliensis [26],Active
same,Leishmanicidal activity,Leishmania donovani [27],Active
same,Leishmanicidal activity,Leishmania amazonensis [28],Active
same,Leishmanicidal activity,Leishmania amazonensis [29],Active
same,Leishmanicidal activity,Leishmania amazonensis [30],Active
same,Leishmanicidal activity,Leishmania donovani [31],Active
COc1cc(CC(=O)c2ccc3c(c2)OCO3)cc(OC)c1OC,Leishmanicidal activity,Leishmania donovani [1],80- 90% lysis
same,Leishmanicidal activity,Leishmania amazonensis [2],80- 90% lysis
same,Leishmanicidal activity,Leishmania donovani [16],80- 90% lysis
same,Leishmanicidal activity,Leishmania braziliensis [13],80- 90% lysis
same,Leishmanicidal activity,Leishmania braziliensis [17],80- 90% lysis
same,Leishmanicidal activity,Leishmania braziliensis [3],80- 90% lysis
same,Leishmanicidal activity,Leishmania amazonensis [18],80- 90% lysis
COc1cc(CC(O)c2ccc3c(c2)OCO3)cc(OC)c1OC (stereo not given),Leishmanicidal activity,Leishmania donovani [1],80- 90% lysis
same,Leishmanicidal activity,Leishmania amazonensis [2],80- 90% lysis
same,Leishmanicidal activity,Leishmania donovani [16],80- 90% lysis
same,Leishmanicidal activity,Leishmania braziliensis [13],80- 90% lysis
same,Leishmanicidal activity,Leishmania braziliensis [17],80- 90% lysis
same,Leishmanicidal activity,Leishmania donovani [14],80- 90% lysis
same,Leishmanicidal activity,Leishmania braziliensis [3],80- 90% lysis
same,Leishmanicidal activity,Leishmania amazonensis [15],80- 90% lysis
same,Leishmanicidal activity,Leishmania amazonensis [18],80- 90% lysis
COc1cc(CCc2ccc3ccccc3c2)cc(OC)c1OC,Leishmanicidal activity,Leishmania braziliensis [13],80- 90% lysis
same,Leishmanicidal activity,Leishmania donovani [14],80- 90% lysis
same,Leishmanicidal activity,Leishmania amazonensis [15],80- 90% lysis
